Assays:
Format in all cases: biochemical
Details in all cases: Table 7
[1] = target: T1, Porcine Ventricle myofibrils (left ventricle of Yucatan minipigs) (Sus scrofa, UniProt P79293); test: Myofibril ATPase assay (PK/LDH NADH-coupled), ventricle myofibrils
T1 construct: Myofibrils from porcine cardiac muscle was isolated from the left ventricle of Yucatan minipigs; tissue Exemplar Genetics; host or cells: left ventricle of Yucatan minipigs
How it was run: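 NADH depletion (A340) coupled through pyruvate kinase/lactate dehydrogenase reports ATPase rate of porcine left-ventricle myofibrils over 75 min kinetic reads. Regression slopes, vehicle-normalized, fitted by 4-parameter logistic give EC25 and, where available, EC50.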

[2] = tested on: Rabbit Skeletal myofibrils (rabbit psoas muscle); test: Myofibril ATPase assay (PK/LDH NADH-coupled), skeletal myofibrils
How it was run: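 ATPase rate taken as linear-regression slope of A340 (NADH depletion through PK/LDH coupling) over a 75 min kinetic read, with psoas-derived rabbit skeletal myofibrils at pH 7.0. Four-parameter fits of vehicle-normalized activity give EC25 and, where reached, EC50.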

Porcine Atria myofibrils = test: Myofibril ATPase assay (PK/LDH NADH-coupled), atria myofibrils
How it was run: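 Values are EC25% (and, for inhibitors, EC50%) from 4-parameter logistic fits of activity normalized to vehicle wells. Rates came from linear regression of 340 nm kinetic reads (every 1.5-2 min, 75 min) of NADH-coupled ATP turnover by porcine atria myofibrils.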

T1 sequence (P79293 whole entry): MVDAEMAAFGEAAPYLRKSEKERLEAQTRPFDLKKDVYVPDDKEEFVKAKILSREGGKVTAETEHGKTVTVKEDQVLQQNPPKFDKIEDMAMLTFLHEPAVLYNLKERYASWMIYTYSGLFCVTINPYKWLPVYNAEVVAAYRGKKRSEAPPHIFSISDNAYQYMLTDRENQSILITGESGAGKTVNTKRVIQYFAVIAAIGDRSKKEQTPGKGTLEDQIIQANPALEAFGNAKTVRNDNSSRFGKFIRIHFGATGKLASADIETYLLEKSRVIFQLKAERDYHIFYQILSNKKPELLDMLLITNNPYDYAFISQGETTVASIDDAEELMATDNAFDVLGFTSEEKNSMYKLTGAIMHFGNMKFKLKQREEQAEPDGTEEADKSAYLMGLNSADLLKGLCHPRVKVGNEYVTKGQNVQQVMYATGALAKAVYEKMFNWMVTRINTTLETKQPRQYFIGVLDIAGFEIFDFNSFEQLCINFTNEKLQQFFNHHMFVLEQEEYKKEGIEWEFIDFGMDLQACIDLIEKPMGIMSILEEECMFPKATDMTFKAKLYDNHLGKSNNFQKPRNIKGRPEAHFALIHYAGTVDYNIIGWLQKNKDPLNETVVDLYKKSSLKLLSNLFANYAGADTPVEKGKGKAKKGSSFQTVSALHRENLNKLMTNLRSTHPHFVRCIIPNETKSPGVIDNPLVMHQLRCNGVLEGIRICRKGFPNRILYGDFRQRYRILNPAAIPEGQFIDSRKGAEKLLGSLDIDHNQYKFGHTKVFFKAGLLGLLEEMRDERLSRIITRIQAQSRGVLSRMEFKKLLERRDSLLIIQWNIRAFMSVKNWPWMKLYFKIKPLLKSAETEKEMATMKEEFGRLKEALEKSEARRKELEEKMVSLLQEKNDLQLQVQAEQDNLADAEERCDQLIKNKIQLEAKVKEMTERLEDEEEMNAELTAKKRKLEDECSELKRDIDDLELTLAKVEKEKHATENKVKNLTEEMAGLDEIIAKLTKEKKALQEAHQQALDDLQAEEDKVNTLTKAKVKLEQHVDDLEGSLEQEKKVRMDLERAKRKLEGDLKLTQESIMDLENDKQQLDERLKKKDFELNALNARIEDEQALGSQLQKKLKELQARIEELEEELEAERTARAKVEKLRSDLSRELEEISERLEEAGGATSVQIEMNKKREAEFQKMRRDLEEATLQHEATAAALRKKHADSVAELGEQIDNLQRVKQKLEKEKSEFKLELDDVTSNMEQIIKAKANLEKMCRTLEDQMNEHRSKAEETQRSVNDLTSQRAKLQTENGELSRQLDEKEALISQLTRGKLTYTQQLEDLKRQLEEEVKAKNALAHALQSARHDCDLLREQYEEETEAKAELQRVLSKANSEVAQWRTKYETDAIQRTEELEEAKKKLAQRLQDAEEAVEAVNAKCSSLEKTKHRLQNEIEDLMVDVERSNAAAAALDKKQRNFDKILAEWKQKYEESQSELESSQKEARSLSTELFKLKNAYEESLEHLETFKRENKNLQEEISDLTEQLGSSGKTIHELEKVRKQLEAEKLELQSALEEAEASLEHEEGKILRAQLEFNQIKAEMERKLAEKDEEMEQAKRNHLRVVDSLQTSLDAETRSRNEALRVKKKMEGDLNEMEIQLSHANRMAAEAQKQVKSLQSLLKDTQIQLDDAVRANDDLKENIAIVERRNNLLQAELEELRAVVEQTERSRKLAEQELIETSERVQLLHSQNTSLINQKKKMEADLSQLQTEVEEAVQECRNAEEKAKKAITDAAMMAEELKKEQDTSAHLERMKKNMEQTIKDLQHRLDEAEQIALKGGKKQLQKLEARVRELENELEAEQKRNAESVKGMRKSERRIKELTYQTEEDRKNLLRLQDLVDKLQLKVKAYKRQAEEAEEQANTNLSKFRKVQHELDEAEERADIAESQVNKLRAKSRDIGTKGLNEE

Compound	Porcine Ventricle IC25 [1] [nM]	Rabbit Psoas IC25 [2] [nM]	Porcine Atria IC25 (Porcine Atria myofibrils) [nM]
C[C@H](NC(=O)CN1Cc2nc(F)ccc2NC1=O)c1ncc(F)cc1F [Compound N105]	100000	30960	100000
C[C@H](NC(=O)[C@H](C)N1Cc2c(ccnc2C(F)(F)F)NC1=O)c1ccc(F)cc1F [Compound N108]	49280	72.7	1410
CC(C(=O)N[C@@H](C)c1ccc(F)cc1F)N1Cc2nc(F)ccc2NC1=O (stereo partly drawn) [Compound N110]	19540	167.4	190
C[C@H](NC(=O)[C@@H](C)N1Cc2nc(F)ccc2NC1=O)c1ccc(F)cc1F [Compound N111]	6670	102.7	80
C[C@H](NC(=O)[C@H](C)N1Cc2c(ccnc2Cl)NC1=O)c1ccc(F)cc1F [Compound N114]	8373	289.2	2300
C[C@H](NC(=O)[C@@H](C)N1Cc2c(ccnc2Cl)NC1=O)c1ccc(F)cc1F [Compound N115]	751.6	22.8	510
C[C@H](NC(=O)CN1Cc2c(ccnc2OC2CC2)NC1=O)c1ccc(F)cc1F [Compound N116]	40220	191.4	4380
CC(C)Oc1nccc2c1CN(CC(=O)N[C@@H](C)c1ccc(F)cc1F)C(=O)N2 [Compound N120]	27230	423.9	100000
CCOc1nccc2c1CN(CC(=O)N[C@@H](C)c1ccc(F)cc1F)C(=O)N2 [Compound N121]	5985	21.8	510

The next lines start with the values.

Porcine Ventricle IC25 [1] [nM]	Rabbit Psoas IC25 [2] [nM]	Porcine Atria IC25 (Porcine Atria myofibrils) [nM]	Compound
100000	3732	2580	COc1ccc2c(n1)CN([C@H](C)C(=O)N[C@@H](C)c1ccc(F)cc1F)C(=O)N2 [Compound N106]
100000	100000	100000	COc1ccc2c(n1)CN([C@@H](C)C(=O)N[C@@H](C)c1ccc(F)cc1F)C(=O)N2 [Compound N107]
100000	455.3	5440	C[C@H](NC(=O)CN1Cc2nc(OC(F)(F)F)ccc2NC1=O)c1ccc(F)cc1F [Compound N109]
9823	296.8	230	C[C@H](NC(=O)CN1Cc2nc(C(F)(F)F)ccc2NC1=O)c1ccc(F)cc1F [Compound N112, N-[(1S)-1-(2,4-Difluorophenyl)ethyl]-2-[2-oxo-6-(trifluoromethyl)-1H,4H-pyrido[3,2-d]pyrimidin-3-yl]acetamide]
73850	328.1	22120	C[C@H](NC(=O)CN1Cc2nc(OC3CC3)ccc2NC1=O)c1ccc(F)cc1F [Compound N113]
379.5	14.6	170	C[C@H](NC(=O)CN1Cc2nc(Cl)ccc2NC1=O)c1ccc(F)cc1F [Compound N117, 2-{6-Chloro-2-oxo-1H,4H-pyrido[3,2-d]pyrimidin-3-yl}-N-[(1S)-1-(2,4-difluorophenyl)ethyl]acetamide]
5896	152	750	CCOc1ccc2c(n1)CN(CC(=O)N[C@@H](C)c1ccc(F)cc1F)C(=O)N2 [Compound N118]
3289	119.6	570	COc1ccc2c(n1)CN(CC(=O)N[C@@H](C)c1ccc(F)cc1F)C(=O)N2 [Compound N119]

From US12509431B2, “1,4-dihydroquinazolinone compounds and uses thereof” (Edgewise Therapeutics, Inc., priority 2022, dated 2025)
